Measurements as given in ChEMBL document CHEMBL1201862, “PubChem BioAssay data set” (2004).
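Cells were grown in 96-well plates and exposed to each compound for 48 hours at five concentrations; endpoints were interpolated linearly between bracketing concentrations, or set to the highest concentration if not reached. GI50 is the concentration that inhibits growth by half.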 Calls of active or inactive are those of the source. Rule as the data show it: active = GI50 up to about 1.1 µM and inactive = higher.

How the values were obtained:
Test in all cases: NCI anticancer screen, dose series, 48 h
SK-MEL-5 = test system: SK-MEL-5
Malme-3M = test system: Malme-3M
SK-MEL-2 = test system: SK-MEL-2
NCI/ADR-RES = test system: NCI/ADR-RES
SW-620 = test system: SW-620
RXF 393 = test system: RXF 393
HT-29 = test system: HT-29
COLO 205 = test system: COLO 205
Hs-578T = test system: Hs-578T
SK-MEL-28 = test system: SK-MEL-28
BT-549 = test system: BT-549
KM12 = test system: KM12
HOP-92 = test system: HOP-92
UACC-257 = test system: UACC-257
U-251 = test system: U-251
MCF7 = test system: MCF7
ACHN = test system: ACHN
DU-145 = test system: DU-145
NCI-H460 = test system: NCI-H460
SK-OV-3 = test system: SK-OV-3
A498 = test system: A498
T47D = test system: T47D
CCRF-CEM = test system: CCRF-CEM
SR = test system: SR
MDA-MB-231 = test system: MDA-MB-231
786-0 = test system: 786-0
OVCAR-8 = test system: OVCAR-8
HOP-62 = test system: HOP-62
IGROV-1 = test system: IGROV-1
PC-3 = test system: PC-3
HCC 2998 = test system: HCC 2998
MOLT-4 = test system: MOLT-4
NCI-H23 = test system: NCI-H23
UACC-62 = test system: UACC-62
SF-268 = test system: SF-268
TK-10 = test system: TK-10
K562 = test system: K562
SF-295 = test system: SF-295
A549 = test system: A549
LOX IMVI = test system: LOX IMVI
M14 = test system: M14
OVCAR-4 = test system: OVCAR-4
HL-60 = test system: HL-60
NCI-H522 = test system: NCI-H522
UO-31 = test system: UO-31
EKVX = test system: EKVX
NCI-H226 = test system: NCI-H226
MDA-MB-435 = test system: MDA-MB-435
OVCAR-3 = test system: OVCAR-3
HCT-116 = test system: HCT-116
SNB-19 = test system: SNB-19
SN12C = test system: SN12C
OVCAR-5 = test system: OVCAR-5
MDA-N = test system: MDA-N
RPMI-8226 = test system: RPMI-8226
SNB-75 = test system: SNB-75
SF-539 = test system: SF-539
HCT-15 = test system: HCT-15

Measured: GI50

O=c1oc2ccccc2cc1-c1csc(Nc2cc(Cl)cc(Cl)c2)n1
> 100 µM: HCT-15
inactive: SK-MEL-5 > 56.1 µM | Malme-3M 11.7 µM | SK-MEL-2 > 100 µM | NCI/ADR-RES 6.59 µM | SW-620 11.9 µM | RXF 393 5.14 µM | HT-29 2.85 µM | COLO 205 18 µM | Hs-578T 12.2 µM | SK-MEL-28 9.51 µM | BT-549 > 54.8 µM | KM12 > 27.5 µM | HOP-92 > 39 µM | UACC-257 > 100 µM | U-251 2.39 µM | MCF7 17.4 µM | ACHN 1.9 µM | DU-145 31.2 µM | NCI-H460 6.64 µM | SK-OV-3 > 34.6 µM | A498 4.94 µM | T47D 15.5 µM | CCRF-CEM 25.2 µM | SR > 20 µM | MDA-MB-231 4.66 µM | 786-0 2.27 µM | OVCAR-8 4.11 µM | HOP-62 3.85 µM | IGROV-1 14 µM | PC-3 > 100 µM | HCC 2998 > 100 µM | MOLT-4 > 43 µM | NCI-H23 > 38.1 µM | UACC-62 52.5 µM | SF-268 12.8 µM | TK-10 20.6 µM | K562 > 100 µM | SF-295 6.35 µM | A549 4.51 µM | LOX IMVI 2.82 µM | M14 > 35.5 µM | OVCAR-4 1.79 µM | HL-60 > 90.8 µM | NCI-H522 20.9 µM | UO-31 2.77 µM | EKVX > 55.6 µM | NCI-H226 > 35.8 µM | MDA-MB-435 4.9 µM | OVCAR-3 11.5 µM | HCT-116 3.6 µM | SNB-19 > 24.2 µM | SN12C 6.31 µM | OVCAR-5 > 100 µM | MDA-N 29.2 µM | RPMI-8226 > 100 µM | SNB-75 2.71 µM | SF-539 2.28 µM
